Measurements from US20110195845A1, “Constructs for Expressing Herbicide Tolerance Genes, Related Plants, and Related Trait Combinations” (Dow AgroSciences LLC, priority 2008, published 2011).

Tests used:
[1] = test system: Arabidopsis seed (wildtype, PAT, DSM-2 (v2)); assay: DSM-2 (v2) as selectable marker: survival of sown seed after glufosinate spray; type: in vivo, Arabidopsis thaliana
Method: The ability to use DSM-2 (v2) as a selectable marker using glufosinate as the selection agent was analyzed with Arabidopsis transformed as described above. Approximately 100 T1 generation Arabidopsis seed (100-150 seeds) containing for DSM-2 (v2) or 2 mg homozygous T5 plants containing PAT were spiked into approximately 10,000 wildtype (sensitive) seed. Each tray of plants received two application timings of 280 g ai/ha glufosinate at the following treatment times: 7 DAP and 11 DAP. Treatments were applied with a DeVilbiss spray tip as previously described. Another 2 mg T1 generation Arabidopsis seed from each was sown and not sprayed as a comparison count. Plants were identified as Resistant or Sensitive 17 DAP.

PAT (pDAS1942) corn = assay: T2 corn response to glufosinate applied postemergence; type: in vivo; settings: 14DAT
Description: (§1) The seed from the cross of T1 DSM-2 (v2)×5× H751 were planted into 4-inch pots containing Metro Mix media and at 2 leaf stage were sprayed in the track sprayer set to 187 L/ha at 560 g ai/ha glufosinate to remove nulls. At 7 DAT nulls were removed and resistant plants were sprayed in the track sprayer as above at the following rates: 0, 560, 1120, 2240, and 4480 g ai/ha glufosinate. Plants were graded at 3 and 14 DAT and compared to 5× H751× Hi II control plants.

[2] = test system: DSM-2 v2 (pDAS1941) T2 corn; assay: as above; type: in vivo; settings: for % Injury Ave / individuals with % Injury 20-40% / individuals with % Injury <20% / individuals with % Injury >40%: 14DAT
Description: as §1

[3] = test system: DSM-2 (v2) gene + AAD-12 transformed T1 Arabidopsis; assay: T1 Arabidopsis response to glufosinate applied postemergence; type: in vivo, Arabidopsis thaliana; settings: for % Injury Ave / individuals with % Injury 20-40% / individuals with % Injury <20% / individuals with % Injury >40%: 2 WAT
Method: (§2) Seven days after planting (DAP) and again 11 DAP, T1 plants (cotyledon and 2-4-1f stage, respectively) were sprayed with a 0.016% solution of 2,4-D herbicide (456 g ae/L 2,4-D Amine 4, Dow AgroSciences LLC, Indianapolis, Ind.) at a spray volume of 10 ml/tray (703 L/ha) using a DeVilbiss compressed air spray tip to deliver an effective rate of 50 g ae/ha 2,4-D DMA per application. Survivors (plants actively growing) were identified 4-7 days after the final spraying and transplanted individually into 3-inch pots prepared with potting media (Metro Mix 360). Transplanted plants were covered with humidity domes for 3-4 days and placed in a 22° C. growth chamber as before or moved to directly to the greenhouse. Domes were subsequently removed and plants reared in the greenhouse (22±5° C., 50±30% RH, 14 h light:10 dark, minimum 500 μE/m^2s^1 natural+supplemental light) at least 1 day prior to testing for the ability of DSM-2 (v2) to provide glufosinate herbicide resistance.
(§3) T1 plants were then randomly assigned to various rates of glufosinate. For Arabidopsis 140 g ai/ha glufosinate is an effective dose to distinguish sensitive plants from ones with meaningful levels of resistance. Elevated rates were also applied to determine relative levels of resistance (280, 560, or 1120 g ai/ha).
(§4) All glufosinate herbicide applications were applied by track sprayer in a 187 L/ha spray volume. The commercial Liberty™ formulation (200 g ai/L, Bayer Crop Science, Research Triangle Park, N.C.).
(§5) The first Arabidopsis transformations were conducted using DSM-2 (v2) (plant optimized gene). T1 transformants were first selected from the background of untransformed seed using a 2,4-D DMA selection scheme. Over 100,000 T1 seed were screened and 260 2,4-D resistant plants (AAD-12 gene) were identified, equating to a transformation/selection frequency of 0.26% which is slightly higher than the normal range of selection frequency of constructs where AAD-12+2,4-D are used for selection. T1 plants selected above were subsequently transplanted to individual pots and sprayed with various rates of commercial glufosinate herbicide. Table 10 compares the response of DSM-2 (v2) and control genes to impart glufosinate resistance to Arabidopsis T1 transformants. Response is presented in terms of % visual injury 2 WAT. […] Since each T1 is an independent transformation event, one can expect significant variation of individual T1 responses within a given rate. An arithmetic mean and standard deviation is presented for each treatment. Untransformed-wildtype Arabidopsis served as a glufosinate sensitive control. The DSM-2 (v2) gene imparted herbicide resistance to individual T1 Arabidopsis plants. Within a given treatment, the level of plant response varied greatly and can be attributed to the fact each plant represents an independent transformation event. Of important note, at above 140 g ai/ha glufosinate, there were individuals that were unaffected while some were severely affected.

[4] = test system: PAT gene + AAD-12 transformed T1 Arabidopsis; assay: as above; type: in vivo, Arabidopsis thaliana; settings: 2 WAT
Method: as §2, §3, §4, §5

[5] = 560 g ai/ha glufosinate postemergence
[6] = 1120 g ai/ha glufosinate postemergence
[7] = 4480 g ai/ha glufosinate postemergence
[8] = 2240 g ai/ha glufosinate postemergence
[9] = 140 g ai/ha glufosinate postemergence
[10] = 280 g ai/ha glufosinate postemergence

## CP(=O)(O)CCC(N)C(=O)O (stereo not drawn) [glufosinate]
[1]; 280 g ai/ha glufosinate 7 DAP and 11 DAP, Trt 1: 200 mg WT planted
  Number of Surviving Plants Following glufosinate Spray: 0
[1]; 280 g ai/ha glufosinate, Trt 2: 2 mg PAT planted
  Number of Surviving Plants Following glufosinate Spray: 154
[1]; 280 g ai/ha glufosinate, Trt 3: 200 mg WT + 2 mg PAT planted
  Number of Surviving Plants Following glufosinate Spray: 121
[1]; 280 g ai/ha glufosinate, Trt 4: 2 mg DSM-2 (v2) planted
  Number of Surviving Plants Following glufosinate Spray: 117
[1]; 280 g ai/ha glufosinate, Trt 5: 200 mg WT + 2 mg DSM-2 (v2) planted
  Number of Surviving Plants Following glufosinate Spray: 121
PAT (pDAS1942) corn; [5]
  individuals with % Injury 20-40%: 0
  individuals with % Injury >40%: 0
PAT (pDAS1942) corn; [6]
  % Injury Ave: 25%
  individuals with % Injury 20-40%: 1
  individuals with % Injury <20%: 0
PAT (pDAS1942) corn; [7]
  % Injury Ave: 33%
  individuals with % Injury 20-40%: 3
  individuals with % Injury >40%: 1
[2]; [5]
  % Injury Ave: 6%
  individuals with % Injury 20-40%: 0
  individuals with % Injury <20%: 4
  individuals with % Injury >40%: 0
[2]; [6]
  % Injury Ave: 18%
  individuals with % Injury 20-40%: 2
  individuals with % Injury <20%: 2
  individuals with % Injury >40%: 0
[2]; [8]
  % Injury Ave: 21%
  individuals with % Injury 20-40%: 3
  individuals with % Injury <20%: 1
  individuals with % Injury >40%: 0
[2]; [7]
  % Injury Ave: 29%
  individuals with % Injury 20-40%: 4
  individuals with % Injury <20%: 0
  individuals with % Injury >40%: 0
[2]; up to 2240 g ai/ha glufosinate
  injury of individual plants: less than 20%
[3]; [9]
  % Injury Ave: 0.0%
  individuals with % Injury 20-40%: 0
  individuals with % Injury <20%: 20
  individuals with % Injury >40%: 0
[3]; [10]
  % Injury Ave: 3.0%
  individuals with % Injury 20-40%: 1
  individuals with % Injury <20%: 19
  individuals with % Injury >40%: 0
[3]; [5]
  % Injury Ave: 6.0%
  individuals with % Injury 20-40%: 0
  individuals with % Injury <20%: 19
  individuals with % Injury >40%: 1
[3]; [6]
  % Injury Ave: 13.0%
  individuals with % Injury 20-40%: 1
  individuals with % Injury <20%: 17
  individuals with % Injury >40%: 2
[3]; 1,120 g ai/ha glufosinate, many individuals
  injury of surviving individuals: little or no injury
[4]; [9]
  % Injury Ave: 0.0%
  individuals with % Injury 20-40%: 0
  individuals with % Injury <20%: 10
  individuals with % Injury >40%: 0
[4]; [10]
  % Injury Ave: 0.0%
  individuals with % Injury 20-40%: 0
  individuals with % Injury <20%: 10
  individuals with % Injury >40%: 0
[4]; [5]
  % Injury Ave: 0.0%
  individuals with % Injury 20-40%: 0
  individuals with % Injury <20%: 10
  individuals with % Injury >40%: 0
[4]; [6]
  % Injury Ave: 3.0%
  individuals with % Injury 20-40%: 0
  individuals with % Injury <20%: 10
  individuals with % Injury >40%: 0
